For test [1], the target named is Delta-type opioid receptor (Homo sapiens, UniProt P41143).
Test [2] addresses T1, 5-hydroxytryptamine receptor 2C (Homo sapiens, UniProt P28335).
T1 sequence (P28335 whole entry): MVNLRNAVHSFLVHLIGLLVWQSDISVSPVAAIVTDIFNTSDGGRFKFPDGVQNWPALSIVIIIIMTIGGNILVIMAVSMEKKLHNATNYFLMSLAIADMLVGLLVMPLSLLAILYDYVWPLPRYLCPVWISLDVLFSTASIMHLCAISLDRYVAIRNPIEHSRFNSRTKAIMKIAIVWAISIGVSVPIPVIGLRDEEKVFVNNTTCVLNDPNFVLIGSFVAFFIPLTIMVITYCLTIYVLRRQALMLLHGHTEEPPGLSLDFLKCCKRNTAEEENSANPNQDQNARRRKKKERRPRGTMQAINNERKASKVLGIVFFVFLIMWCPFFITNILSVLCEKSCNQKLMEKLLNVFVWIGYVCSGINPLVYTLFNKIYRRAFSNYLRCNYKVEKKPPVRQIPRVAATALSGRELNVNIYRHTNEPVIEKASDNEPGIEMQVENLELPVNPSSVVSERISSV

For test [3], the target named is T2, Muscarinic acetylcholine receptor M2 (Homo sapiens, UniProt P08172).
T2 sequence (P08172 whole entry): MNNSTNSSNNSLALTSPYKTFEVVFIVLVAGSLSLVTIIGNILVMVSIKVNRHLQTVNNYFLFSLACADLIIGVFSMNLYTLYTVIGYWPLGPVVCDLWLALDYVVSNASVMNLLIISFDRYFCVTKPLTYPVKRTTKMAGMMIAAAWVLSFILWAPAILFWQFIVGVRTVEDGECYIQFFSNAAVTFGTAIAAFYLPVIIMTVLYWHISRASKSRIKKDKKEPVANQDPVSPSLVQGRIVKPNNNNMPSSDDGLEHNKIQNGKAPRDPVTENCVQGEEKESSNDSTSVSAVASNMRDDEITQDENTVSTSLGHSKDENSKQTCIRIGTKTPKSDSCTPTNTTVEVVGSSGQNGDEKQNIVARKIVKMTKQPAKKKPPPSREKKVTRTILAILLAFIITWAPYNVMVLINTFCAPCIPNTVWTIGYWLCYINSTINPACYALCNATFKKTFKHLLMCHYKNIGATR
The format is functional, cell-based.

Test [4] deals with T3, Alpha-1A adrenergic receptor (Homo sapiens, UniProt P35348).
T3 sequence (P35348 whole entry): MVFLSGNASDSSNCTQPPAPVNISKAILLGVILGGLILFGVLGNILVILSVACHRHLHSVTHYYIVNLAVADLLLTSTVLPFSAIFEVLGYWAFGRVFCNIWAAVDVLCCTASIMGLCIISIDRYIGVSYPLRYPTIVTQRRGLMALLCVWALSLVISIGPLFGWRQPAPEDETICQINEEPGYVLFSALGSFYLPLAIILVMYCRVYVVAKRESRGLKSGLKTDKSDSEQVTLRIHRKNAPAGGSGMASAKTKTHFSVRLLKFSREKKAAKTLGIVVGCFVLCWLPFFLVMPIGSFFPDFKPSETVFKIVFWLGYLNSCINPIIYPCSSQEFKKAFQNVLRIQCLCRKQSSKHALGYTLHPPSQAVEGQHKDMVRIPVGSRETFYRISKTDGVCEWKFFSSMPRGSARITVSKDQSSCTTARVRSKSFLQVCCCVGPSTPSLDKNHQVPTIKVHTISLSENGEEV
It counts as functional, cell-based.

The target in the next test is Histamine H3 receptor (Homo sapiens, UniProt Q9Y5N1).
Histamine H3 receptor, sequence (Q9Y5N1 whole entry): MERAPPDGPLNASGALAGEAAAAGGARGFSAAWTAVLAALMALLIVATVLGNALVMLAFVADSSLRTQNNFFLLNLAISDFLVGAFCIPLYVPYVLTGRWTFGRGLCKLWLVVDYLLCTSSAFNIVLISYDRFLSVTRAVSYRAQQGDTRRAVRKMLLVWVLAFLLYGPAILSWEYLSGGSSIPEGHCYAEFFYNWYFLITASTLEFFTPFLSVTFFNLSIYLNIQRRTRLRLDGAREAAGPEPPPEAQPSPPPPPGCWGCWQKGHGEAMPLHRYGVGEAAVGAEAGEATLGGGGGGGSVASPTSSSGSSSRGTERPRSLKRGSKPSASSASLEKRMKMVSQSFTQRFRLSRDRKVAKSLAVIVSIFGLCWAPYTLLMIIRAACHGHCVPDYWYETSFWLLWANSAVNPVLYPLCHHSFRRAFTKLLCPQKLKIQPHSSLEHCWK
A further test has as its target Histamine H2 receptor (Homo sapiens, UniProt P25021). The format is functional, cell-based.
Test [5] has as its target Sodium-dependent noradrenaline transporter (Homo sapiens, UniProt P23975).
Another test has as its target T4, B2 bradykinin receptor (Homo sapiens, UniProt P30411).
T4 sequence (P30411 whole entry): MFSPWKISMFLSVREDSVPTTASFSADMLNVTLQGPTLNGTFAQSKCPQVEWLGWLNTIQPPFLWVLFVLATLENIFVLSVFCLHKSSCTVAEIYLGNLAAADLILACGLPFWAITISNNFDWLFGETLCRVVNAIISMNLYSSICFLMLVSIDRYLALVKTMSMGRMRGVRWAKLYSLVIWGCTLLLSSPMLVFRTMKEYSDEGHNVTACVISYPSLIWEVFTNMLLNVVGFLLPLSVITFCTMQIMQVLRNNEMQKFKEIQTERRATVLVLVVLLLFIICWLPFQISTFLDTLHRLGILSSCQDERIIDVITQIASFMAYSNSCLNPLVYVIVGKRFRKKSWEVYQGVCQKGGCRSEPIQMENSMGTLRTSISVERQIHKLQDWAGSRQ

A further test has as its target T5, Endothelin-1 receptor (Homo sapiens, UniProt P25101).
T5 sequence (P25101 whole entry): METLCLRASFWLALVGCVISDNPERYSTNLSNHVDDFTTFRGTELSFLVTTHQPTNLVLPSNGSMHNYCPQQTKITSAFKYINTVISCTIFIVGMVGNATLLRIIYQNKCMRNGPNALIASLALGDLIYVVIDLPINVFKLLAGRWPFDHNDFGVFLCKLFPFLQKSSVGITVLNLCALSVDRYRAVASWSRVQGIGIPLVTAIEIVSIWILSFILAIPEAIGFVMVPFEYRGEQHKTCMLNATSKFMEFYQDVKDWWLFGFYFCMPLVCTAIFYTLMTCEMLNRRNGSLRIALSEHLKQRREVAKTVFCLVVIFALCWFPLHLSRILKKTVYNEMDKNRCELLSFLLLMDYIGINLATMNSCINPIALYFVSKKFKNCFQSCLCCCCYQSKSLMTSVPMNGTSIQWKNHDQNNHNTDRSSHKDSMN

Where a SMILES comes first, the peptide text is derived from it.
Also: assay procedure not described here.

Histamine H2 receptor, sequence (P25021 whole entry): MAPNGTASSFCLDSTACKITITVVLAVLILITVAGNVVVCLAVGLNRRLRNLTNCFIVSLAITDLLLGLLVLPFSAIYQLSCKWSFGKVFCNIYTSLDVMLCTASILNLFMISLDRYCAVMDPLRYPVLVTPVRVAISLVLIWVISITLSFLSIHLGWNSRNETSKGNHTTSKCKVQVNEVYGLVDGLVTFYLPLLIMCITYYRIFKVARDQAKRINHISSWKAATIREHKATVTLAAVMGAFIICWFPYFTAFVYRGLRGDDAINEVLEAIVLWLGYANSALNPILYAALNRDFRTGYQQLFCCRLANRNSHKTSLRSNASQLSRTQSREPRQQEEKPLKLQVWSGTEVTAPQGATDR
Sodium-dependent noradrenaline transporter, sequence (P23975 whole entry): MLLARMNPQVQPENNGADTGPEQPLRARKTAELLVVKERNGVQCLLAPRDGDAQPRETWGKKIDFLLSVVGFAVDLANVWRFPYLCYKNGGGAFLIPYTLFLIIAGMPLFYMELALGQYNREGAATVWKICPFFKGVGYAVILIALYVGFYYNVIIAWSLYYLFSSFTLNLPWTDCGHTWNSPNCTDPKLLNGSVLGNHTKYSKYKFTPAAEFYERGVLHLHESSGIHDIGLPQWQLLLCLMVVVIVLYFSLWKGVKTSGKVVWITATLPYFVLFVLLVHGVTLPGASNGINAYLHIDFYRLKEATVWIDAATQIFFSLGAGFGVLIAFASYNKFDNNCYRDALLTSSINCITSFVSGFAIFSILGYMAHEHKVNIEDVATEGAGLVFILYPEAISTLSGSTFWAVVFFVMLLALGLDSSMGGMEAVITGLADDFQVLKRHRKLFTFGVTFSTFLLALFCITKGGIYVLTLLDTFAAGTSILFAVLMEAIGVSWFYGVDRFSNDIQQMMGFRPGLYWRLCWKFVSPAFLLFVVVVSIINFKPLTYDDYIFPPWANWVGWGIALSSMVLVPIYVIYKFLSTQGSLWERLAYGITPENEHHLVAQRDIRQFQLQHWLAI
Delta-type opioid receptor, sequence (P41143 whole entry): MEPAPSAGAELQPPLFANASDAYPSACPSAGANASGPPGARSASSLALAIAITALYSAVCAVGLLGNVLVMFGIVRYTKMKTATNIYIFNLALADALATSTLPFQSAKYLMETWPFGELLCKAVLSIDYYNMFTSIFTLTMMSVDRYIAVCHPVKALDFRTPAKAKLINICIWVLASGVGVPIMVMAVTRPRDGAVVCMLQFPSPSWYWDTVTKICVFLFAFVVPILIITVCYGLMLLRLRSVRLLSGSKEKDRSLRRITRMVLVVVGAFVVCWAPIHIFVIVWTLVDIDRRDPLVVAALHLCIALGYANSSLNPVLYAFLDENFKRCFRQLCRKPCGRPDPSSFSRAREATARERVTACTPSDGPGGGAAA

`O=C(O)c1ccc2nc(-c3cc(Cl)cc(Cl)c3)oc2c1`: the AC50 is 30 µM in test [1]; above 30 µM in [2]; above 30 µM in test [3]; above 30 µM in test [4]; above 30 µM on Histamine H3 receptor; above 30 µM at Histamine H2 receptor. For the same compound, the AC50 (in test [5]; at B2 bradykinin receptor; on Endothelin-1 receptor) was above 30 µM each time.
Turning to `NS(=O)(=O)c1ccc(N2CCCCS2(=O)=O)cc1`, the AC50 (in [1]; in test [2]; in [3]; in test [4]; at Histamine H3 receptor; on Histamine H2 receptor) was above 30 µM each time. Further, the AC50 (in [5]; at B2 bradykinin receptor; at Endothelin-1 receptor) was above 30 µM each time.
Turning to `C[C@H](N)C(=O)N[C@@H](CCC(N)=O)C(=O)O` [ALANYL GLUTAMINE] (H-Ala-Gln-OH), the AC50 (in test [1]; in test [2]; in test [3]; in test [4]; at Histamine H3 receptor; at Histamine H2 receptor) was above 30 µM in each case. Besides, the AC50 (in test [5]; at B2 bradykinin receptor; on Endothelin-1 receptor) was above 30 µM throughout.
For the compound `COc1cc(N)cn[n+]1-c1ccccc1` [AMEZINIUM METILSULFATE], the AC50 (in test [1]; in test [2]; in test [3]; in [4]; on Histamine H3 receptor; at Histamine H2 receptor) was above 30 µM throughout. The AC50 in [5] is 3.9 µM; on B2 bradykinin receptor, above 30 µM; at Endothelin-1 receptor, above 30 µM.
Turning to `CNCCc1ccccn1` [BETAHISTINE], the AC50 was above 30 µM in [1]; above 30 µM in test [2]; above 30 µM in [3]; above 30 µM in test [4]; 11 µM at Histamine H3 receptor; above 30 µM at Histamine H2 receptor. Further, the AC50 (in [5]; at B2 bradykinin receptor; on Endothelin-1 receptor) was above 30 µM in each case.
On to `O=C(O)CCCC[C@@H]1SC[C@@H]2NC(=O)N[C@@H]21` [BIOTIN], for which the concentration at half-maximal activity (AC50) in test [1] was above 30 µM; in test [2] it was above 30 µM; in [3], above 10 µM; at Histamine H2 receptor, above 10 µM; in [5], above 10 µM; at B2 bradykinin receptor it was above 10 µM.
With `CCCCOC(=O)c1ccc(N)cc1` [BUTAMBEN], the AC50 (in test [1]; in test [2]; in [3]; in [4]; at Histamine H3 receptor; at Histamine H2 receptor) was above 30 µM each time. In addition, the AC50 (in test [5]; at B2 bradykinin receptor; on Endothelin-1 receptor) was above 30 µM in each case.
`CC(=O)Oc1cccc2c1C(=O)c1c(OC(C)=O)cc(C(=O)O)cc1C2=O` [DIACEREIN]: the AC50 is above 30 µM in [1]; above 30 µM in test [2]; 21 µM in test [4]; above 30 µM on Histamine H3 receptor; above 30 µM at Histamine H2 receptor; 13 µM in test [5]. Further, the AC50 was 28 µM on B2 bradykinin receptor and above 30 µM on Endothelin-1 receptor.
Regarding `OCCN(CCO)c1nc(N2CCCCC2)c2nc(N(CCO)CCO)nc(N3CCCCC3)c2n1` [DIPYRIDAMOLE], the AC50 in test [1] is above 30 µM; in test [2], above 30 µM; in [3], above 30 µM; in test [4], 3.5 µM; at Histamine H2 receptor, above 30 µM; in test [5], above 30 µM. Also, the AC50 on B2 bradykinin receptor was above 30 µM.
Regarding `COc1ccc2c3c1O[C@H]1C(=O)CC[C@H]4[C@@H](C2)N(C)CC[C@]314` [HYDROCODONE], the AC50 in test [2] was above 30 µM; in test [3], above 10 µM; in test [4], above 30 µM; on Histamine H3 receptor, above 10 µM; on Histamine H2 receptor, above 10 µM; in test [5], above 10 µM. Moreover, the AC50 on B2 bradykinin receptor and at Endothelin-1 receptor was above 30 µM each time.
Take `CCN(CC)CC(=O)Nc1c(C)cccc1C` [LIDOCAINE]: the AC50 at B2 bradykinin receptor and at Endothelin-1 receptor was above 30 µM in each case.
Consider `COc1nc(C)nc(Cl)c1N=C1NCCN1` [MOXONIDINE], for which the AC50 was above 30 µM in test [1]; above 30 µM in test [2]; above 30 µM in [3]; 0.09 µM in test [4]; above 30 µM at Histamine H3 receptor; 16 µM on Histamine H2 receptor. The AC50 on B2 bradykinin receptor and at Endothelin-1 receptor was above 30 µM in each case.
For the compound `CN1CCCN=C1/C=C/c1cccc(O)c1` [OXANTEL], the AC50 (in test [1]; in [2]; in [3]; in test [4]; at Histamine H3 receptor; on Histamine H2 receptor) was above 30 µM in each case. In addition, the AC50 at B2 bradykinin receptor and on Endothelin-1 receptor was above 30 µM in each case.
As to `CCCCOC(=O)C(=O)Nc1cccc(-c2nnn[nH]2)c1` [TAZANOLAST], the AC50 (in [1]; in [3]; in test [4]; on Histamine H3 receptor; on Histamine H2 receptor; in test [5]) was above 30 µM throughout. The AC50 on B2 bradykinin receptor and on Endothelin-1 receptor was above 30 µM throughout.
On to `CCCCC[C@H](O)CC[C@@H]1[C@H]2Cc3cccc(OCC(=O)O)c3C[C@H]2C[C@H]1O` [TREPROSTINIL], for which the AC50 (in test [1]; in test [3]; in [4]; at Histamine H3 receptor; at Histamine H2 receptor; in test [5]) was above 30 µM throughout. The AC50 at B2 bradykinin receptor and at Endothelin-1 receptor was above 30 µM in each case.
In the case of `OCC(CO)N[C@H]1C[C@](O)(CO)[C@@H](O)[C@H](O)[C@H]1O` [VOGLIBOSE], the AC50 (in test [1]; in [2]; in test [3]; in test [4]; at Histamine H3 receptor; on Histamine H2 receptor) was above 30 µM in each case. Further, the AC50 (in test [5]; on B2 bradykinin receptor) was above 30 µM each time.
